This note sets out measurements from article PMC6545112 (Journal of medicinal chemistry, 2018).

Read-outs that look alike come from different tables or passages of the source.

For one assay, the system named is RS4;11 cell line. Description: cell growth inhibition, WST-8 assay, RS4. It counts as cell-based, human. The conditions noted are these: for IC50: 4 days, WST-8 assay. (In general: Tetrazolium dyes change colour on reduction, which living cells bring about.)
The target in assay [1] is MDM2 and p53 proteins in RS4;11 cells (Homo sapiens, UniProt Q00987). Description: western blotting analysis of MDM2 and p53 proteins in RS4. The assay is classed as cell-based. The conditions noted are these: RS4;11 cells; for effect on MDM2 and p53 protein levels (western blotting): 2 h treatment. A general note: A western blot detects proteins with antibodies after separation by electrophoresis.
Chain of MDM2 and p53 proteins in RS4;11 cells (Q00987 whole entry): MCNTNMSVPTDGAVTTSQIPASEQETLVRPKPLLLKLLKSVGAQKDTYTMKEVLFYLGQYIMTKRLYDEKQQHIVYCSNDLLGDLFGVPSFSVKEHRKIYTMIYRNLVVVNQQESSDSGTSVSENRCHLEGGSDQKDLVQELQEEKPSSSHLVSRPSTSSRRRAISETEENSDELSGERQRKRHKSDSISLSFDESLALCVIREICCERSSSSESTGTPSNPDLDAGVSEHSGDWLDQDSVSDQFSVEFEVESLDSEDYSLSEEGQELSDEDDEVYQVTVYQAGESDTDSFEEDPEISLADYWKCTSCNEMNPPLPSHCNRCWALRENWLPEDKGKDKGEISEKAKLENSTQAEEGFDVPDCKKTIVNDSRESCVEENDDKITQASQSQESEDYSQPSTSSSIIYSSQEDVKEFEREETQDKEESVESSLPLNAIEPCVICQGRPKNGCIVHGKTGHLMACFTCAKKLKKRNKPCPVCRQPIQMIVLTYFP

Setting [2] is: read-out: IC50 (nM) in inhibition of cell growth in the RS4;11 cell line.

As to “(3’R,4’S,5’R)-6”-Chloro-4’-(3-Chloro-2-fluorophenyl)-N-(4-(((S)-14-((2S,4R)-4-hydroxy-2-(((S)-1-(4-(4-methylthiazol-5-yl)phenyl)ethyl)carbamoyl)pyrrolidine-1-carbonyl)-15,15-dimethyl-12-oxo-3,6,9-trioxa-13-azahexadecyl)carbamoyl)phenyl)-2”-oxodispiro[cyclohexane-1,2’-pyrrolidine-3’,3”-indoline]-5’-carboxamide [Compound 20]”, the IC50 (commonly the midpoint of a concentration-inhibition curve) came out at 340 ± 20 nM in the assay on RS4;11 cell line (setting [2]) and 300 nM with RS4;11 cell line (read-out: IC50 in the cell growth assay in the RS4;11 cell line). The “effect on MDM2 protein level (western blotting)” value in assay [1] (12 h treatment) is on record as “fails to reduce the level of MDM2 protein”.

Consider `CN1C(=O)CCC(N2Cc3c(C#CCCCNC(=O)c4ccc(NC(=O)[C@@H]5NC6(CCCCC6)[C@@]6(C(=O)Nc7cc(Cl)ccc76)[C@H]5c5cccc(Cl)c5F)cc4)cccc3C2=O)C1=O` (some centres unmarked) [Compound 22, (3’R,4’S,5’R)-6”-Chloro-4’-(3-chloro-2-fluorophenyl)-N-(4-((5-(2-(1-methyl-2,6-dioxopiperidin-3-yl)-1-oxoisoindolin-4-yl)pent-4-yn-1-yl)carbamoyl)phenyl)-2”-oxodispiro[cyclohexane-1,2’-pyrrolidine-3’,3”-indoline]-5’-carboxamide], for which the “times less potent than MD-224 in inhibition of cell growth” value in the assay with RS4;11 cell line (RS4;11) is on record as more than 100 times. In assay [1], the “effect on MDM2 and p53 protein levels (western blotting)” value (from here on “effect on MDM2 and p53 protein levels”) is “completely inactive in inducing MDM2 degradation”.

Take `O=C1CCC(N2C(=O)c3cccc(NCCCCCCNC(=O)c4ccc(NC(=O)[C@@H]5NC6(CCCCC6)[C@@]6(C(=O)Nc7cc(Cl)ccc76)[C@H]5c5cccc(Cl)c5F)cc4)c3C2=O)C(=O)N1` (some centres unmarked) [Compound 7, (3’R,4’S,5’R)-6”-Chloro-4’-(3-Chloro-2-fluorophenyl)-N-(4-((6-((2-(2,6-dioxopiperidin-3-yl)-1,3-dioxoisoindolin-4-yl)amino)hexyl)carbamoyl)phenyl)-2”-oxodispiro[cyclohexane-1,2’-pyrrolidine-3’,3”-indoline]-5’-carboxamide]: the “effect on MDM2 and p53 protein levels” value in assay [1] was “induce degradation of MDM2 and accumulation of p53”.

Turning to `O=C1CCC(N2C(=O)c3cccc(NCCCCCCCNC(=O)c4ccc(NC(=O)[C@@H]5NC6(CCCCC6)[C@@]6(C(=O)Nc7cc(Cl)ccc76)[C@H]5c5cccc(Cl)c5F)cc4)c3C2=O)C(=O)N1` (some centres unmarked) [Compound 8, (3’R,4’S,5’R)-6”-Chloro-4’-(3-Chloro-2-fluorophenyl)-N-(4-((7-((2-(2,6-dioxopiperidin-3-yl)-1,3-dioxoisoindolin-4-yl)amino)heptyl)carbamoyl)phenyl)-2”-oxodispiro[cyclohexane-1,2’-pyrrolidine-3’,3”-indoline]-5’-carboxamide], in the assay with RS4;11 cell line (RS4;11), the “times less potent than 1 in inhibition of cell growth” value is 10 times. For the same compound, the “effect on MDM2 and p53 protein levels” value in assay [1] was “induce degradation of MDM2 and accumulation of p53”.

On to `O=C1CCC(N2C(=O)c3cccc(CCCCCNC(=O)c4ccc(NC(=O)[C@@H]5NC6(CCCCC6)[C@@]6(C(=O)Nc7cc(Cl)ccc76)[C@H]5c5cccc(Cl)c5F)cc4)c3C2=O)C(=O)N1` (some centres unmarked) [Compound 11, (3’R,4’S,5’R)-6”-Chloro-4’-(3-Chloro-2-fluorophenyl)-N-(4-((5-(2-(2,6-dioxopiperidin-3-yl)-1,3-dioxoisoindolin-4-yl)pentyl)carbamoyl)phenyl)-2”-oxodispiro[cyclohexane-1,2’-pyrrolidine-3’,3”-indoline]-5’-carboxamide], for which the “times less potent than 1 in inhibition of cell growth” value in the assay on RS4;11 cell line (RS4;11) amounted to 3 times.

`O=C1CCC(N2Cc3c(C#CCCNC(=O)c4ccc(NC(=O)[C@@H]5NC6(CCCCC6)[C@@]6(C(=O)Nc7cc(Cl)ccc76)[C@H]5c5cccc(Cl)c5F)cc4)cccc3C2=O)C(=O)N1` (some centres unmarked) [Compound 15, (3’R,4’S,5’R)-6”-Chloro-4’-(3-chloro-2-fluorophenyl)-N-(4-((4-(2-(2,6-dioxopiperidin-3-yl)-1-oxoisoindolin-4-yl)but-3-yn-1-yl)carbamoyl)phenyl)-2”-oxodispiro[cyclohexane-1,2’-pyrrolidine-3’,3”-indoline]-5’-carboxamide]: the “times less potent than MD-224 in inhibition of cell growth” value with RS4;11 cell line (RS4;11) was 2 times.

For `O=C1CCC(N2C(=O)c3cccc(NCCNC(=O)c4ccc(NC(=O)[C@@H]5NC6(CCCCC6)[C@@]6(C(=O)Nc7cc(Cl)ccc76)[C@H]5c5cccc(Cl)c5F)cc4)c3C2=O)C(=O)N1` (some centres unmarked) [Compound 4, (3’R,4’S,5’R)-6”-Chloro-4’-(3-Chloro-2-fluorophenyl)-N-(4-((2-((2-(2,6-dioxopiperidin-3-yl)-1,3-dioxoisoindolin-4-yl)amino)ethyl)carbamoyl)phenyl)-2”-oxodispiro[cyclohexane-1,2’-pyrrolidine-3’,3”-indoline]-5’-carboxamide], in assay [1], the “effect on MDM2 and p53 protein levels” value is “induce degradation of MDM2 and accumulation of p53”.

“(3’R,4’S,5’R)-6”-Chloro-4’-(3-chloro-2-fluorophenyl)-N-(4-((4-((2-(2,6-dioxopiperidin-3-yl)-1-oxoisoindolin-4-yl)amino)butyl)carbamoyl)phenyl)-2”-oxodispiro[cyclohexane-1,2’-pyrrolidine-3’,3”-indoline]-5’-carboxamide [Compound 12]”: the “times more potent than 1 in inhibition of cell growth” value in the assay with RS4;11 cell line (RS4;11) is reported as “twice as potent as 1”. For the same compound, the IC50 in the assay with RS4;11 cell line (setting [2]) amounted to 5 ± 5 nM.

As to `CNC(=O)c1ccc(NC(=O)[C@@H]2NC3(CCCCC3)[C@@]3(C(=O)Nc4cc(Cl)ccc43)[C@H]2c2cccc(Cl)c2F)cc1` [MI-1242], the “effect on MDM2 and p53 protein levels” value in assay [1] was “inducing accumulation of both MDM2 and p53”.

As for `O=C1CCC(N2C(=O)c3cccc(NCCCCCNC(=O)c4ccc(NC(=O)[C@@H]5NC6(CCCCC6)[C@@]6(C(=O)Nc7cc(Cl)ccc76)[C@H]5c5cccc(Cl)c5F)cc4)c3C2=O)C(=O)N1` (some centres unmarked) [Compound 6, (3’R,4’S,5’R)-6”-Chloro-4’-(3-Chloro-2-fluorophenyl)-N-(4-((5-((2-(2,6-dioxopiperidin-3-yl)-1,3-dioxoisoindolin-4-yl)amino)pentyl)carbamoyl)phenyl)-2”-oxodispiro[cyclohexane-1,2’-pyrrolidine-3’,3”-indoline]-5’-carboxamide], the “effect on MDM2 and p53 protein levels” value in assay [1] was “induce degradation of MDM2 and accumulation of p53”.

Take `O=C1CCC(N2C(=O)c3cccc(NCCCNC(=O)c4ccc(NC(=O)[C@@H]5NC6(CCCCC6)[C@@]6(C(=O)Nc7cc(Cl)ccc76)[C@H]5c5cccc(Cl)c5F)cc4)c3C2=O)C(=O)N1` (some centres unmarked) [Compound 5, (3’R,4’S,5’R)-6”-Chloro-4’-(3-Chloro-2-fluorophenyl)-N-(4-((3-((2-(2,6-dioxopiperidin-3-yl)-1,3-dioxoisoindolin-4-yl)amino)propyl)carbamoyl)phenyl)-2”-oxodispiro[cyclohexane-1,2’-pyrrolidine-3’,3”-indoline]-5’-carboxamide]: the “effect on MDM2 and p53 protein levels” value in assay [1] was “induce degradation of MDM2 and accumulation of p53”.

With `O=C1CCC(N2C(=O)c3cccc(NCCOCCNC(=O)c4ccc(NC(=O)[C@@H]5NC6(CCCCC6)[C@@]6(C(=O)Nc7cc(Cl)ccc76)[C@H]5c5cccc(Cl)c5F)cc4)c3C2=O)C(=O)N1` (some centres unmarked) [Compound 9, (3’R,4’S,5’R)-6”-Chloro-4’-(3-Chloro-2-fluorophenyl)-N-(4-((2-(2-((2-(2,6-dioxopiperidin-3-yl)-1,3-dioxoisoindolin-4-yl)amino)ethoxy)ethyl)carbamoyl)phenyl)-2”-oxodispiro[cyclohexane-1,2’-pyrrolidine-3’,3”-indoline]-5’-carboxamide], the “effect on MDM2 and p53 protein levels” value in assay [1] was “effectively induce degradation of MDM2 and accumulation of p53”.
